# Results taken from the supplement of paper PMC10307832.
# Experiments:
# Experiment in all cases: relative viability (nuclei count vs DMSO), 5 days (fraction); higher = more cells survive
# [1] = compound: COc1cc2/c(=N/c3ccc(Br)cc3F)nc[nH]c2cc1OCC1CCN(C)CC1 [Vandetanib] + CC(=O)c1c(C)c2cnc(Nc3ccc(N4CCNCC4)cn3)nc2n(C2CCCC2)c1=O [Palbociclib] (partner 0.5 µM)
# In short: (§1)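 Lung cancer cell lines were seeded in 1536-well plates and dosed by pin tool the next day, with either a single drug or a fixed anchor-drug dose combined with five library-drug doses (not always all listed) spaced in √10 steps. Five days later, one step fixed the cells and stained their nuclei (final 0.05% Triton X-100, 1% formaldehyde, 1 ug/ml Hoechst), and nuclei were counted on 4× images. Relative viability is the nuclei count in treated wells divided by the count in vehicle wells, and each value is the median of duplicate plates.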
# [2] = compound: COc1cc(N2CCC(N3CCN(C)CC3)CC2)ccc1Nc1ncc(Cl)c(Nc2ccccc2S(=O)(=O)C(C)C)n1 [NVP-TAE684] + COc1cc2c(Oc3ccc(NC(=O)C4(C(=O)Nc5ccc(F)cc5)CC4)cc3F)ccnc2cc1OCCCN1CCOCC1 [Foretinib] (partner 0.25 µM)
# In short: as §1
# [3] = compound: COc1cc(N2CCC(N3CCN(C)CC3)CC2)ccc1Nc1ncc(Cl)c(Nc2ccccc2S(=O)(=O)C(C)C)n1 [NVP-TAE684] + CCNC(=O)c1noc(-c2cc(C(C)C)c(O)cc2O)c1-c1ccc(CN2CCOCC2)cc1 [Luminespib] (partner 0.01 µM)
# In short: as §1
# [4] = compound: COc1cc2/c(=N/c3ccc(Br)cc3F)nc[nH]c2cc1OCC1CCN(C)CC1 [Vandetanib] + O=C(CCCCCCC(=O)Nc1ccccc1)NO [Vorinostat] (partner 1 µM)
# In short: as §1
Cell Line,relative viability ([1]; first compound 0.02 µM),relative viability ([1]; first compound 0.06325 µM),relative viability ([1]; first compound 0.2 µM),relative viability ([1]; first compound 0.6325 µM),relative viability ([1]; first compound 2 µM),relative viability ([2]; first compound 0.2 µM),relative viability ([2]; first compound 0.6325 µM),relative viability ([2]; first compound 2 µM),relative viability ([3]; first compound 0.2 µM),relative viability ([3]; first compound 0.6325 µM),relative viability ([3]; first compound 2 µM),relative viability ([4]; first compound 0.02 µM),relative viability ([4]; first compound 0.06325 µM),relative viability ([4]; first compound 0.2 µM),relative viability ([4]; first compound 0.6325 µM),relative viability ([4]; first compound 2 µM)
NCI-H358,0.146,0.162,0.119,0.133,0.109,0.736,0.672,0.099,0.25,0.337,0.115,0.61,0.594,0.668,0.68,0.257
LK-2,0.57,0.811,0.859,0.58,0.66,1.14,1.28,0.316,0.169,0.157,0.167,0.31,0.311,0.341,0.265,0.365
EPLC-272H,0.329,0.321,0.329,0.282,0.311,0.756,0.639,0.247,0.185,0.382,0.217,0.41,0.466,0.447,0.441,0.447
A-427,0.508,0.497,0.485,0.531,0.503,0.952,1.1,0.498,0.978,0.79,0.516,0.809,0.85,0.903,0.842,0.911
NCI-H1755,0.46,0.471,0.427,0.446,0.439,1.03,0.897,0.761,0.304,0.272,0.445,0.768,0.818,0.773,0.709,0.709
NCI-H838,0.219,0.227,0.243,0.216,0.219,0.971,1.05,0.628,0.27,0.275,0.282,0.731,0.679,0.772,0.78,0.68
ABC-1,0.91,0.541,0.693,0.708,0.643,1.07,0.742,0.349,0.405,0.264,0.381,1.05,1.11,1.02,0.96,0.773
NCI-H2228,0.718,0.644,0.804,0.725,0.659,0.445,0.238,0.123,0.142,0.116,0.0834,0.592,0.474,0.747,1.04,0.679
NCI-H1793,0.325,0.305,0.302,0.296,0.261,0.684,0.587,0.22,0.164,0.168,0.144,0.716,0.618,0.651,0.648,0.624
NCI-H1563,,,,,,0.914,0.88,0.696,0.542,0.548,0.407,,,,,
NCI-H661,0.4,0.411,0.433,0.458,0.392,1.19,1.05,0.779,1,0.883,,0.736,0.798,0.783,0.867,0.915
EKVX,0.415,0.396,0.345,0.291,0.176,0.51,0.806,0.537,0.877,0.913,0.754,0.727,0.697,0.732,0.776,0.382
NCI-H1650,0.34,0.291,0.289,0.318,0.244,1.06,1.14,0.556,0.184,0.206,0.182,0.525,0.502,0.599,0.544,0.452
HCC-827,0.479,0.468,0.227,0.263,0.166,1.16,1.02,0.874,0.52,0.613,0.65,0.788,0.82,0.815,0.369,0.327
NCI-H2170,0.402,0.434,0.398,0.376,0.394,1.1,0.997,0.999,0.747,0.618,0.663,0.84,0.829,0.816,0.767,0.813
NCI-H1395,0.635,0.602,0.641,0.609,0.567,1.1,,0.807,0.686,0.834,0.732,0.622,0.881,0.495,0.63,0.596
NCI-H1623,,,,,,0.865,0.899,0.65,0.531,0.54,0.322,,,,,
HCC-78,0.443,0.485,0.479,0.518,0.446,0.539,0.539,0.382,,,,0.5,0.481,0.418,0.505,0.346
EBC-1,,,,,,0.0925,0.117,0.107,,,,,,,,
NCI-H596,,,,,,0.932,0.734,0.649,0.914,0.832,0.758,1.37,0.562,0.657,0.666,0.693
HCC-366,0.423,0.41,0.453,0.394,0.351,1.07,0.935,0.685,,,,0.277,0.326,0.278,0.31,0.438
NCI-H1299,,,,,,1.16,1.14,1.08,,,,,,,,
Calu-6,,,,,,,0.878,0.671,,,,,,,,
NCI-H1703,,,,,,0.388,0.325,0.331,,,,,,,,
NCI-H1648,0.27,0.245,0.2,0.284,0.24,,,,,,,0.473,0.506,0.596,0.375,0.627
